What was measured:
Format in all cases: cell-based
[1] = Cytotoxicity by LDH release (CyQUANT LDH Cytotoxicity Assay); conditions: human, HCE-2, 4 μM, 45 min contact, read-out: cytotoxicity (% of dead cells, LDH)
Protocol: The cytotoxicity of a solution of compound 1 in Cremophor® EL [CAS 61791-12-6](molar ratio 1/1), designated under the reference F4267, compared to that of calcein-AM, was evaluated on the human corneal epithelium cell line immortalized by SV40, HCE-2 (ATCC CRL-11135) using two solutions of F4267 of concentrations [40 μM] and [1000 μM] or calcein-AM (FP-F19820, Interchim) [4 μM] diluted in optiMEM (11058021, Gibco, ThermoFisher) and deposited for 45 minutes on the cells (100 μL per well seeded 24 hours previously at 1.10^5 cells/mL [3788, Corning, surface: 0.32 cm^2]. After 45 minutes of contact with compound 1 or with calcein-AM, the cells were rinsed with their culture medium, then returned to culture in an oven with 5% CO2, at 37° C. Cytotoxicity was measured by dosing lactate dehydrogenases (LDH) released into the supernatant using the CyQUANT LDH Cytotoxicity Assay kit (C20301, ThermoFisher, see cytotoxicity test below) and expressed as % of dead cells using an internal standard. Cytotoxicity was evaluated 45 minutes (before rinsing), 24 h and 48 h after the start of incubation (3 wells per condition, n=1 experiments).
Lactate DeHydrogenases (LDH) are a family of ubiquitous cytosolic enzymes present in almost all cell types. Membrane damage causes a release of LDH into the external environment. There is a direct correlation between cellular cytotoxicity which causes membrane damage and the amount of LDH present in the extracellular environment. […]
The cytotoxicity test was carried out with tetrazolium salt (INT) which is converted into formazan. […] The concentration of formazan being proportional to the amount of LDH present in the medium, this was quantified by an absorbance reading at 555 nm, against a blank measurement at 650 nm to eliminate the parasitic absorbance of the medium. The percentage of dead cells is then calculated from the formula below, with the maximum LDH activity being that of a well from which all cells have been lysed, and the basal LDH activity, that of a non-treated well.

[2] = tested on: normal human fetal lung fibroblasts HEL299; assay: Quality of cytoplasmic marking on adherent cells; conditions: HEL299, 4 μM, FITC filter, macroscope
Protocol: The quality of cytoplasmic marking by compound 1 on cells was evaluated on the adherent line of normal human fetal lung fibroblasts HEL299 [ATCC CCL-137], because they form a cellular monolayer (a single thickness facilitating the evaluation of cellular morphology and enumeration). Cells were seeded at 1.10^5 cells/mL 72 h before marking, then marked with the solution of compound 1 designated by the reference F4267 at [4 μM] and [40 μM] or with a solution of Calcein-AM [4 μM], then observed in a sterile Petri dish under the FITC filter of a macroscope (macro-zoom microscope, MVX10, Olympus, Tokyo, Japan) (2 wells per condition, n=1 experiments).

[3] = tested on: corneal endothelium; assay: Quality of cytoplasmic marking on corneal endothelium; conditions: human corneal endothelium, 4 μM, 45 min
Protocol: The quality of cytoplasmic marking by compound 1 (solution F4267) on corneal endothelium was compared to that of Calcein-AM by staining paired corneas. The endothelial surface of the corneas was incubated for 45 minutes either with the F4267 solution (40 μM on the left eye, LE) or with Calcein-AM (4 μM on the right eye, RE) following a validated staining protocol. (Invest Ophthalmol Vis Sci. 2011, 52 (8), 6018-6025, Pipparelli and al.) (n=2 pairs of corneas).

[4] = tested on: HCEC-B4G12 corneal endothelial cells; assay: Impact of repeated cell marking on cell viability; conditions: B4G12, 4 μM, daily marking 45 min, with or without PBS rinsing, D5
Protocol: The experiment is carried out with HCEC-B4G12 corneal endothelial cells (CVCL_2065). The cells are thawed and cultured in their culture medium. The cells are trypsinized once a week before being seeded in wells of 24-well slides at a concentration of 1.10^5 cells/mL. The cells are then incubated for 5 days at 37° C., 5% CO2 until 90% confluence.
The different wells are stained daily with Calcein-AM (4 μM) or product F4267 (40 μM), according to the following conditions: marking for 45 minutes, then rinsing with PBS or marking for 45 minutes without rinsing. The marking and possibly rinsing step is repeated every day for 4 successive days, then after 2 days without marking, the marking is repeated again for 2 consecutive days.
The marking steps are carried out in duplicate. Afterwards, each marking, a well for each of the conditions is observed by epifluorescence microscopy (Olympus IX81 Microscope, FITC channel, ×4 objective, L: 25, Texp: 142.7 ms), while the second well (control) is kept in the darkness in order to evaluate the impact of fluorescence observation at the end of the study. On the last day of the study, the marking is carried out with calecin-AM (4 μM) in the presence of Hoescht ( 1/500) or the product F4267 (40 μM) in the presence of Hoescht ( 1/500), and the wells are imaged in MIA×4 (reconstruction of several fields to obtain a complete image of the well). […]

**Q.** What does the source list for `CC(=O)OCOC(=O)CN(CC(=O)OCOC(C)=O)Cc1c(OC(C)=O)ccc2c1Oc1c(ccc(OC(C)=O)c1CN(CC(=O)OCOC(C)=O)CC(=O)OCOC(C)=O)C21OC(=O)c2ccccc21` [Calcein-AM]?
**A.** cytotoxicity at 45 min, 4 µM ([1]; measured at 45 min): 0.6 ± 0.5%; cytotoxicity at 24 h, 4 µM ([1]; measured at 24 h): 26.4 ± 14.1%; cytotoxicity at 48 h, 4 µM ([1]; measured at 48 h): 18.8 ± 11.1%; quality of cytoplasmic marking [2]: visualize the cell cytoplasms in a similar way; marking differentiating dead cells from living cells [3]: marking differentiating dead cells from living cells; cell layer after repeated marking [4]: less dense; cell layer after repeated marking ([4]; listed as calcein-AM): absence of cell layer
